Measured values published in BigSolDB 2.1.

Nc1ccc(Cc2ccc(N)c(Cl)c2)cc1Cl
solubility (mole fraction)
Settings	283.15 K	288.15 K	293.15 K	298.15 K	303.15 K	308.15 K	313.15 K	318.15 K	323.15 K	328.15 K
in 1,4-dioxane	–	0.206	0.217	0.236	0.258	0.285	0.32	0.354	0.394	0.443
in DMAc	0.339	0.348	0.366	0.384	0.41	0.436	0.466	0.502	0.548	0.587
in DMF	0.306	0.316	0.33	0.347	0.373	0.396	0.425	0.462	0.502	0.545
in acetonitrile	0.0208	0.0225	0.0251	0.0283	0.0323	0.0367	0.0419	0.048	0.0574	0.0671
in ethanol	0.0223	0.0242	0.0272	0.0314	0.0362	0.0424	0.049	0.057	0.0677	0.0803
in ethyl acetate	0.115	0.123	0.134	0.146	0.162	0.177	0.196	0.223	0.254	0.287
in ethylene glycol	0.0057	0.00624	0.00816	0.00975	0.0123	0.0148	0.0181	0.0208	0.0239	0.0281
in isobutanol	0.0136	0.015	0.0172	0.0197	0.0227	0.0259	0.0301	0.0357	0.0426	0.0513
in isopropanol	0.0189	0.0203	0.0226	0.0261	0.0294	0.0336	0.039	0.0447	0.0532	0.0623
in methanol	0.0163	0.018	0.02	0.0231	0.026	0.0297	0.0347	0.0405	0.048	0.0565
in n-butanol	0.0298	0.0323	0.037	0.0425	0.0484	0.0551	0.0632	0.0737	0.0873	0.105
in n-propanol	0.0257	0.0278	0.0322	0.0369	0.0422	0.0484	0.0562	0.066	0.0783	0.094
in water	0.00014	0.000172	0.000228	0.000286	0.000342	0.000409	0.000475	0.000559	0.000684	0.000842
